Assay results published in the Kinase Knowledgebase extract (Sharma et al. 2016).
pIC50: −log10 of the molar value.

Target: EGFR (human) (UniProt P00533)
Details: a431

Chain of EGFR (human) (P00533 whole entry, looked up): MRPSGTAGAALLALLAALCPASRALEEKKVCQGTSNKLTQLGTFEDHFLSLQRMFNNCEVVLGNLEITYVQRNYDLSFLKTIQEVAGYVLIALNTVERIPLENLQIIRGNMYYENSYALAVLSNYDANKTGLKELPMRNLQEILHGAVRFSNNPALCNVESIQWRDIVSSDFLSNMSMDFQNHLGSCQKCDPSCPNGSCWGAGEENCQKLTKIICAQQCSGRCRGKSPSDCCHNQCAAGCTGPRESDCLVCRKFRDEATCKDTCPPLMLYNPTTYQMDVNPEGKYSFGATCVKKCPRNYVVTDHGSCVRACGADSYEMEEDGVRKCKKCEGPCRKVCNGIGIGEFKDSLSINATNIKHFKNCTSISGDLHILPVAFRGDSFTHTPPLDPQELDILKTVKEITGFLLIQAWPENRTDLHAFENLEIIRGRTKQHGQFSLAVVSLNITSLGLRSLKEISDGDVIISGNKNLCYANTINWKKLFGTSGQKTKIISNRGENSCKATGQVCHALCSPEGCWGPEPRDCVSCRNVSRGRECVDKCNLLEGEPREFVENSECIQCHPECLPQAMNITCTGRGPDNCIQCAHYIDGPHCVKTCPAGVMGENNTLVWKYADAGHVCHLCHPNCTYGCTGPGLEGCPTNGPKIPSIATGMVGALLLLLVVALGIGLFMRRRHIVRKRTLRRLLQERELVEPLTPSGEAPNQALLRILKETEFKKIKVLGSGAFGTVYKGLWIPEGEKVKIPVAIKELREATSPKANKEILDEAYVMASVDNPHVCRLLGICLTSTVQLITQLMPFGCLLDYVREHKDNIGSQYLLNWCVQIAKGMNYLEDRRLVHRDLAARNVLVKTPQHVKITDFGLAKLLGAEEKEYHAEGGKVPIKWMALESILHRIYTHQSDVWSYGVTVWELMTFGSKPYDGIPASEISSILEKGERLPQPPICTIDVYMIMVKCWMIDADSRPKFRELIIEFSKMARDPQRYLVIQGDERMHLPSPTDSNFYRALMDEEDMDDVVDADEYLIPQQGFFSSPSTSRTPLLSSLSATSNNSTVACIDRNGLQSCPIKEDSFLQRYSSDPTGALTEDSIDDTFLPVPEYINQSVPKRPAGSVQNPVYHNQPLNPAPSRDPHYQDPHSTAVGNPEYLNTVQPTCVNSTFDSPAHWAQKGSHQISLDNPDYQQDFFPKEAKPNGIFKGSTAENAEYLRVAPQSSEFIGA

SMILES | pIC50
Cc1cccc(Nc2ncnc3cc4c(cc23)n(C)c(=O)n4C)c1 | < 5.00
Brc1cccc(Nc2ncnc3c2ccc2ccccc23)c1 | < 5.00
Cc1cccc(Nc2ncnc3c2ccc2ccccc23)c1 | < 5.00
CS(=O)(=O)Nc1cccc(Nc2ncnc3cc4c(cc23)OCO4)c1 | < 5.00
CS(=O)(=O)Nc1cccc(Nc2ncnc3cc4c(cc23)OCCO4)c1 | < 5.00
Cn1c(=O)n(C)c2cc3c(Nc4cccc(Br)c4)ncnc3cc21 | < 5.00
Cc1cccc(Nc2ncnc3cc4c(cc23)OCO4)n1 | < 5.00
Cc1ccnc(Nc2ncnc3cc4c(cc23)OCO4)c1 | < 5.00
Cn1c(=O)n(C)c2cc3c(Nc4cccc(C(F)(F)F)c4)ncnc3cc21 | < 5.00
Cc1cccc(Nc2ncnc3cc4c(cc23)OCCO4)n1 | < 5.00
FC(F)(F)c1cccc(Nc2ncnc3c2ccc2ccccc23)c1 | < 5.00
